The results in this text go back to ChEMBL document CHEMBL3507680, “University of Dundee, Gates Library screen for HepG2 cell viability”.

A short description of the series: Human HepG2 cell viability assay in 384 well format. The series is classed as toxicity, cell-based. More on the design: dose 125 nL, time 70.5 hour; cytotoxicity at 70.5 h: concentration not given beside the values. As to conditions: HepG2 cells, read-out: Inhibition.
Consider `CC(c1ccco1)N(C)Cc1cc2cc3c(cc2[nH]c1=O)OCO3` (stereo not given), for which the cytotoxicity at 70.5 h was -8.06%. The result for `COc1ccc(CN2CCNC(=O)CC2)cc1SC(F)(F)F` reads 1.64%; that for `CN1CCN(c2cc(Sc3cccs3)nc(N)n2)CC1CCO` (stereo not given), -7.97%. Regarding `Cc1ccccc1CCC1CCCN(C(=O)Cc2cc(=O)[nH]c(N)n2)C1` (stereo not given), the cytotoxicity at 70.5 h came out at 10.8%.

As for `COCC1CC2(CCN(C(=O)c3occc3C)CC2)CN1C(C)C` (stereo not given), the cytotoxicity at 70.5 h is 20.9%.

For `Cc1nn(C)c(C)c1C1CCCN1CC(=O)Nc1nccs1` (stereo not given), the cytotoxicity at 70.5 h was -0.764%. The result for `CCN1CCN(S(=O)(=O)c2ccc(Cc3cc(C)n[nH]c3=O)cc2)CC1` reads -10.8%; that for `FC(F)(F)c1csc(N2CCN(Cc3ccccn3)CC2)n1`, -6.63%. `O=C(CC1CCCCC1)N1C[C@H]2CC[C@@H]1CN(Cc1cccnc1)C2`: the cytotoxicity at 70.5 h is -13.3%.

Consider `O=C(c1ccc[nH]1)N1CCC2(CCCN2Cc2cccnc2)CC1`, for which the cytotoxicity at 70.5 h came out at 0.719%. The result for `O=S(=O)(NCCn1ccc(-c2ccncc2)n1)C1CC1` reads 0.267%. The result for `Cc1nn(C)cc1-c1cc(C(=O)NCC(C)(C)c2ccccc2F)n[nH]1` reads 17.9%; that for `C[C@@H]1CN(CCOc2ccc(F)cc2)CC[C@@]1(O)C1CCOCC1`, -2.42%; that for `O=C(CCc1cnn(-c2ccccc2)c1)N1CCCC(n2cccn2)C1` (stereo not given), 6.67%.

With `COc1ncccc1NC(=O)N1CCOCC1C` (stereo not given), the cytotoxicity at 70.5 h was found to be 4.15%. In the case of `CCC(CC)c1cc(C(=O)N2CCN(CC(N)=O)CC2)on1`, the cytotoxicity at 70.5 h is -6.02%. On to `Cn1cccc1-c1cc(C(=O)NCCCc2csc(N)n2)[nH]n1`, for which the cytotoxicity at 70.5 h was 18.4%. For `N#Cc1cccc(CN(CC(=O)N2CCCC2)CC2CCCO2)c1` (stereo not given), the cytotoxicity at 70.5 h was 0.804%. The result for `Cc1ccc(OCC(O)CNC(=O)C2(c3ccc(F)cc3)CC2)cc1` (stereo not given) reads -7.12%; that for `O=c1[nH]nc(CNc2cncc(Br)c2)[nH]1`, 29.9%. As to `CCc1nccn1-c1nccnc1C1CCCN(C(=O)COC)C1` (stereo not given), the cytotoxicity at 70.5 h is -6.06%. Regarding `CNc1nc(C(=O)N2CCC3(CCCN(C)C3=O)C2)cs1` (stereo not given), the cytotoxicity at 70.5 h was -4.39%. As for `Cn1cc(CN2CCCCC2c2ccc(-c3cnn(C)c3)nc2)cn1` (stereo not given), the figure is -8.29%. Consider `COCCc1ncc(CN2CCC3(CCCN(CC4CC4)C3)C2)cn1` (stereo not given), for which the cytotoxicity at 70.5 h worked out at 0.629%. The result for `CC(C)CNC(=O)CNC(=O)NC(C)COc1ccccc1F` (stereo not given) reads -13.5%. As to `CC1(C)OC(=O)N(CCOc2ccc(F)cc2)C1=O`, the cytotoxicity at 70.5 h is -4.69%. Take `CC(C)c1ccc(C2(C(=O)NCCS(N)(=O)=O)CCC2)cc1`: the cytotoxicity at 70.5 h was -9.09%.

Turning to `c1ccc(CN2Cc3[nH]nc(COc4cccnc4)c3C2)nc1`, the cytotoxicity at 70.5 h is -7.63%. As for `Cc1ccc(OCCN2CCCC(c3cc(C(N)=O)[nH]n3)C2)cc1` (stereo not given), the figure is -5.38%; as for `Cn1c(NCC(O)c2ccc(F)cc2F)c(C#N)c(=O)n(C)c1=O` (stereo not given), -5.92%.

For the compound `O=C(NC1CC1)N1CCn2c(Cn3cccn3)cnc2C1`, the cytotoxicity at 70.5 h was -5.68%. Take `COCCN1CC2(CCCN(C(=O)CCCc3cccs3)C2)CCC1=O` (stereo not given): the cytotoxicity at 70.5 h is 9.49%.

Regarding `O=C(c1ccncc1)N1C[C@@H]2CC[C@H](C1)N(S(=O)(=O)c1cccnc1)C2`, the cytotoxicity at 70.5 h is -5.9%.

In the case of `Cc1cnn(CCNCC(=O)NC(C)c2ccc3c(c2)OCCO3)c1` (stereo not given), the cytotoxicity at 70.5 h is -3.11%.

In the case of `CC(C)NC(=O)[C@H]1C[C@@H]2[C@@H](C1)OCCN2CC1CC1`, the cytotoxicity at 70.5 h is -3.31%. The result for `Cc1cc2c(=O)n3c(nc2s1)CCN(C(=O)c1ccn(C)n1)CC3` reads -5.05%. For the compound `Cc1cccc(CNC2CC3(CCN(CCO)CC3)c3ccccc32)n1` (stereo not given), the cytotoxicity at 70.5 h was found to be 2.24%. The result for `CN1CCN(c2ncc3c(=O)n(-c4cccc(F)c4)c(=O)[nH]c3n2)CC1` reads -12.6%. As for `CCc1nc(C2CCCN2Cc2nnc(CC)o2)no1` (stereo not given), the figure is -9.92%. The result for `CC1(C)CN(CC(F)(F)F)CCN1CC(N)=O` reads -3.8%; that for `O=C(NCC(F)(F)F)C1CCC(=O)N(C2CCCC2)C1` (stereo not given), -3.8%.

Regarding `CN(C)CCC1CN(C(=O)c2cccc3c2OCC3)CCO1` (stereo not given), the cytotoxicity at 70.5 h is 30%. `c1ccc(-c2nc(CNCCn3cccn3)cs2)nc1`: the cytotoxicity at 70.5 h came out at 19.2%.

On to `Cn1nnnc1SC1CCCN(c2ccccc2Cl)C1=O` (stereo not given), for which the cytotoxicity at 70.5 h is -1.81%. As to `Cc1ccc(N2CC3(COCCN(Cc4ccccn4)C3)OCC2=O)s1` (stereo not given), the cytotoxicity at 70.5 h is -1.36%. As for `Cc1nc(CN2CCCC(NCc3ccc(Cl)s3)C2)no1` (stereo not given), the figure is -13%; as for `COc1cc(OC)c(-c2nc3c([nH]2)c(C2CC2)nn3C)cc1OC`, -3.1%. As for `Cc1nc(CN2C[C@H]3C[C@H](C(=O)NCC4CC4)N(C)[C@H]3C2)cs1`, the cytotoxicity at 70.5 h was determined as 9.54%. With `O=C(NC1CCS(=O)(=O)C1)N1CCN(c2cnccn2)CC1` (stereo not given), the cytotoxicity at 70.5 h is -7.1%. The result for `Cc1ccc(CSc2nc(N)cc(NCCS(=O)(=O)N(C)C)n2)cc1` reads -2.68%; that for `CCC(C(=O)N(C)C)n1ccc2ncccc2c1=O` (stereo not given), -13.2%. Take `Cn1cc(S(=O)(=O)NCC(C)(O)c2ccsc2)cn1` (stereo not given): the cytotoxicity at 70.5 h amounted to 1.13%. The result for `Cc1ccc(CNC2CC3(CCN(CCO)CC3)c3ccccc32)s1` (stereo not given) reads 4.93%; that for `CCN(Cc1cc(-c2ccccn2)no1)C1CCS(=O)(=O)C1` (stereo not given), -9.24%. As for `COCCCNC(=O)c1cc(-c2cnc(N(C)C)nc2)cn1CC1CC1`, the figure is -6.95%; as for `CCCC1CCCN(C(=O)Nc2ccc(F)c(C(N)=O)c2)CC1` (stereo not given), -1.9%; as for `CC(Nc1ccc(CCN2CCCCC2)cc1)C(=O)N(C)CCC#N` (stereo not given), -6.46%. Regarding `CN1CCN(C2CCN(Cc3noc(-c4ccccc4)n3)CC2)C1=O`, the cytotoxicity at 70.5 h is -3.63%.

Take `CC(C(=O)N1CCc2ccccc2C1)N(C)Cc1cscn1` (stereo not given): the cytotoxicity at 70.5 h was -4.2%. The result for `Cc1cnc(N2CCC3(CCCN3C(=O)c3ccco3)CC2)nc1` reads -2.74%; that for `CC1CN(CC2CCCC2)CCN1c1ccc2nncn2n1` (stereo not given), 4.49%; that for `Cc1nc(C)c(CC(=O)Nc2nnc(C(C)C)s2)c(=O)[nH]1`, -5.16%. As for `CCN(C)Cc1n[nH]c(=O)n1-c1cc(F)ccc1C`, the figure is -5.83%; as for `O=C(Nc1ccnn1Cc1ccc(Cl)cc1)C1CCS(=O)(=O)C1` (stereo not given), -8.12%. The result for `Cn1c(C2CC2)nc2c1CCN(CCc1ccccn1)C2` reads -5.41%; that for `Cc1noc(C)c1CN1CCO[C@H]2[C@H](Oc3ccccn3)CC[C@@H]21`, -0.309%. With `O=C1Cc2cc(NC(=O)N3CCCN(Cc4cccs4)CC3)ccc2N1`, the cytotoxicity at 70.5 h was -4.49%.

`Cc1cc(C)n(CC2CCCN2C(=O)c2ccc3ccccc3n2)n1` (stereo not given): the cytotoxicity at 70.5 h was -10.7%. The result for `O=C(C1CCOC1)N1CCC(Cn2cc(-c3ccsc3)nn2)CC1` (stereo not given) reads -11.1%. `O=C(c1cnc(-c2ncccn2)s1)N1CCCC1Cn1cccn1` (stereo not given): the cytotoxicity at 70.5 h was -2.29%.
